# Results published in ChEMBL document CHEMBL4706610, “Hydroxypyridinone-Based Iron Chelators with Broad-Ranging Biological Activities” (J Med Chem, 2020).
# Experiments:
# Acetylcholinesterase [1] = molecular target: T1, Acetylcholinesterase (Electrophorus electricus, UniProt O42275); assay: Inhibition of electric eel AChE using acetylthiocholine iodide as substrate preincubated for 15 mins followed by substrate addition and measured for 5 mins by Ellman's method
# [2] = Partition coefficient, log P of the compound; assay type: physicochemical; settings: octanol/water
# Bacillus subtilis = assay: Antibacterial activity against Bacillus subtilis incubated for 2 hrs followed by sterilized TSB addition and measured after 24 hrs by visual inspection; assay type: functional; settings: time 26 hrs
# Escherichia coli = assay: Antibacterial activity against Escherichia coli incubated for 2 hrs followed by sterilized TSB addition and measured after 24 hrs by visual inspection; assay type: functional; settings: time 26 hrs
# Staphylococcus aureus = assay: Antibacterial activity against Staphylococcus aureus incubated for 2 hrs followed by sterilized TSB addition and measured after 24 hrs by visual inspection; assay type: functional; settings: time 26 hrs
# Pseudomonas aeruginosa = assay: Antibacterial activity against Pseudomonas aeruginosa incubated for 2 hrs followed by sterilized TSB addition and measured after 24 hrs by visual inspection; assay type: functional; settings: time 26 hrs
# [3] = Octanol-buffer partition coefficient, logP of the compound at pH 7.4 by shake flask method; assay type: physicochemical
# [4] = Binding affinity to Fe3+ assessed as pFe by UV-Vis spectrophotometric method
# Rattus norvegicus [5] = assay: Iron scavenging activity in 59Fe-ferritin-loaded rat assessed as iron mobilization efficacy at 450 umol/kg, po dosed 1 hr after 59Fe-ferritin injection and measured 24 hrs after 59Fe-ferritin injection by gamma counting method relative to control; assay type: functional; settings: dose 450 µmol/kg; time 23 hrs
# [6] = Binding affinity to iron assessed as pFe3+ at pH 7.45
# Acetylcholinesterase [7] = molecular target: T1, Acetylcholinesterase; assay: Inhibition of electric eel AChE using acetylthiocholine iodide as substrate preincubated for 5 mins followed by substrate addition and measured after 2 mins by Ellman's method
# [8] = system: Staphylococcus epidermidis; assay: Antibacterial activity against Staphylococcus epidermis ATCC 12228 measured after 18 to 24 hrs by CLSI-based microdilution technique; assay type: functional; settings: time 18-24 hrs
# Plasmodium falciparum [9] = assay: Antiplasmodial activity against chloroquine-resistant Plasmodium falciparum Dd2 incubated for 48 hrs by parasite lactate dehydrogenase assay; assay type: functional, organism-based; settings: Dd2, 48 h
# Plasmodium falciparum [10] = assay: Antiplasmodial activity against chloroquine-resistant Plasmodium falciparum K1 incubated for 48 hrs by parasite lactate dehydrogenase assay; assay type: functional, organism-based; settings: K1, 48 h
# Plasmodium falciparum [11] = assay: Antiplasmodial activity against chloroquine-sensitive Plasmodium falciparum D10 incubated for 48 hrs by parasite lactate dehydrogenase assay; assay type: functional, organism-based; settings: D10, 48 h
# Plasmodium falciparum [12] = assay: Antiplasmodial activity against chloroquine-sensitive Plasmodium falciparum 3D7 incubated for 48 hrs by parasite lactate dehydrogenase assay; assay type: functional, organism-based; settings: 3D7, 48 h
# [13] = Antioxidant activity assessed as ABTS radical scavenging activity by trolox-equivalent antioxidant capacity assay; assay type: functional
# [14] = molecular target: T2, Amyloid-beta precursor protein (Homo sapiens, UniProt P05067); assay: Inhibition of self-induced amyloid beta (1 to 42) (unknown origin) aggregation by ThT fluorescence assay relative to control; settings: concentration not given here
# [15] = molecular target: T2, Amyloid-beta precursor protein; assay: Inhibition of self-induced amyloid beta (1 to 42) (unknown origin) aggregation by ThT fluorescence assay
# [16] = Electrochemical behavior of the compound assessed as redox potential; assay type: physicochemical
# [17] = molecular target: T2, Amyloid-beta precursor protein; assay: Inhibition of self-induced amyloid beta (1 to 42) (unknown origin) aggregation measured after 24 hrs by ThT fluorescence assay relative to control; settings: concentration not given here
# [18] = Antioxidant activity assessed as DPPH radical scavenging activity incubated for 30 mins by UV-Vis spectrophotometric method; assay type: functional
# [19] = Binding affinity to iron assessed as pFe3+
# [20] = Antioxidant activity assessed as DPPH radical scavenging activity incubated for 30 mins by absorbance method; assay type: functional
# [21] = molecular target: T2, Amyloid-beta precursor protein; assay: Inhibition of human amyloid beta (1 to 42) aggregation incubated for 24 hrs by ThT fluorescence assay; settings: concentration not given here
# Acetylcholinesterase [22] = molecular target: Acetylcholinesterase (Torpedo californica, UniProt P04058); assay: Inhibition of Torpedo californica AChE using acetylthiocholine iodide as substrate preincubated for 15 mins followed by substrate addition and measured for 5 mins; design: species or system Tetronarce californica
# [23] = Binding affinity to Fe3+ assessed as pFe at by potentiometric/UV-Vis spectrophotometric method
# [24] = Binding affinity to Cu2+ assessed as pCu at pH 7.4 by potentiometric/UV-Vis spectrophotometric method
# Rattus norvegicus [25] = assay: Iron scavenging activity in 59Fe-ferritin-loaded Wistar rat assessed as iron mobilization efficacy at 450 umol/kg, po dosed 1 hr after 59Fe-ferritin injection and measured 24 hrs after 59Fe-ferritin injection by gamma counting method relative to control; assay type: functional; settings: dose 450 µmol/kg
# [26] = system: Human immunodeficiency virus 1; assay: Antiviral activity against HIV1 BaL infected in human peripheral blood lymphocytes assessed as reduction in p24 production incubated for 5 days by ELISA; assay type: functional, organism-based; settings: Human immunodeficiency virus 1, BaL, PBL, 120 h
# [27] = Octanol/water partition coefficient, log P of the compound shaken for 45 mins and measured after 15 mins; assay type: physicochemical; settings: time 60 min
# T2 sequence (P05067 whole entry): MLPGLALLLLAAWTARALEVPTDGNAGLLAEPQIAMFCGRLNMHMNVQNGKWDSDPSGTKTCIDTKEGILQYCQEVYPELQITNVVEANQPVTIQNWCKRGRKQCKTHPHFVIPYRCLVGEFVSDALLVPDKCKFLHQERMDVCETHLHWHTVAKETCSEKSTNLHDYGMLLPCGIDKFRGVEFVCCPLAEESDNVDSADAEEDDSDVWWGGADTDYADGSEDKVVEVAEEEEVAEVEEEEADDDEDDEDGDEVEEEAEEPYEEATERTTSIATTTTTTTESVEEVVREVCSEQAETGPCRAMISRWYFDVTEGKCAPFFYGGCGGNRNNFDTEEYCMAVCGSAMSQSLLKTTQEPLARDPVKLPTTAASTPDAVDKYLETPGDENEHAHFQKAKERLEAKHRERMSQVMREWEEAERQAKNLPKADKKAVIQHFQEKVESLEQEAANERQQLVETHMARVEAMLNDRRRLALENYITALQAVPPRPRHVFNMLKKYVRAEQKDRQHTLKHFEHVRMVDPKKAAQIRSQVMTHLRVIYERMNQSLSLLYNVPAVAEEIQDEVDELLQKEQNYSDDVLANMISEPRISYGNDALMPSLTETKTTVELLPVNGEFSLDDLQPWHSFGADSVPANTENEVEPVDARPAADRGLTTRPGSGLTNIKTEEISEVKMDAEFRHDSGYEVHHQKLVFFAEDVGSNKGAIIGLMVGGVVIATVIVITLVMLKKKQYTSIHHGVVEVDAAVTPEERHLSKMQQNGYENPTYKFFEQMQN
# T1 sequence (O42275 whole entry): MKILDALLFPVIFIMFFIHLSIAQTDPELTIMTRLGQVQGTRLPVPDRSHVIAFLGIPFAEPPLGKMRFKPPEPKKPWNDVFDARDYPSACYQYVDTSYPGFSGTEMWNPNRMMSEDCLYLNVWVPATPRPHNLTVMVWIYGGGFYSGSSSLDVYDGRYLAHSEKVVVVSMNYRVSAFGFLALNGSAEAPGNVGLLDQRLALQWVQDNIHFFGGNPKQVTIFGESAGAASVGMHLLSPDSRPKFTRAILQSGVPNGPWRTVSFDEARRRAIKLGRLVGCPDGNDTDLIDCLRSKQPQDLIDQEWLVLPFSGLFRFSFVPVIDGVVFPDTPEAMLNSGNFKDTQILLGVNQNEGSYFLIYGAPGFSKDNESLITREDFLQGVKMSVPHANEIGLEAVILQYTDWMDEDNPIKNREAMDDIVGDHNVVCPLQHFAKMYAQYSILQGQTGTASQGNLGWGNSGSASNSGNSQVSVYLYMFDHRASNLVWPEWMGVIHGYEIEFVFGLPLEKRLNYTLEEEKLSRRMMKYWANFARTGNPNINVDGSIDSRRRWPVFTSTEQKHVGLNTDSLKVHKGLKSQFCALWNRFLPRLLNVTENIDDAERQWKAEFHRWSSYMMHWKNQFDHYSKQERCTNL
# Sequence of Acetylcholinesterase (Torpedo californica, UniProt P04058) (P04058 whole entry): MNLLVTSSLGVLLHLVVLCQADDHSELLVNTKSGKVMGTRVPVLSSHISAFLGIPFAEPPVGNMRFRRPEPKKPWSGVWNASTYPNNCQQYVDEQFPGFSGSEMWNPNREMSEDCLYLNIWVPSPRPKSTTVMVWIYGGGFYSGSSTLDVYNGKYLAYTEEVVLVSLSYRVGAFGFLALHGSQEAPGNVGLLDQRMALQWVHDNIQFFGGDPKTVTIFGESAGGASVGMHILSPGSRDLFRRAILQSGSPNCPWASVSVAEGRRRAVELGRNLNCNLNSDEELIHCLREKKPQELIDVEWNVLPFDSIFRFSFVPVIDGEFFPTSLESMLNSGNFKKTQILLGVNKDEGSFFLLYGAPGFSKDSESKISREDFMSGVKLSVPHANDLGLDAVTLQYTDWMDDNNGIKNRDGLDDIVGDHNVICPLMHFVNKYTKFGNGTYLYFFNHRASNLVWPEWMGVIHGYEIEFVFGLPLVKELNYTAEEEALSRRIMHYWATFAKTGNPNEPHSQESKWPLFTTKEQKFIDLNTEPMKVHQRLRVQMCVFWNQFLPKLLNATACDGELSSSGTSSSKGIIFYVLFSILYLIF
smiles,measurement,setting,value
Cc1c(O)c(=O)ccn1CC(=O)NCCCNc1c2c(nc3ccccc13)CCCC2,IC50,Acetylcholinesterase [1],0.64 µM
Cc1c(O)c(=O)ccn1CCN1CCCCC1,logP,[2],0.96
CCCC(=O)NC(CCCNC(=O)c1c(O)c(=O)ccn1C)(CCCNC(=O)c1c(O)c(=O)ccn1C)CCCNC(=O)c1c(O)c(=O)ccn1C,MIC,Bacillus subtilis,8 µg/mL
same,MIC,Escherichia coli,8 µg/mL
same,MIC,Staphylococcus aureus,8 µg/mL
same,MIC,Pseudomonas aeruginosa,16 µg/mL
CC(=O)NCCOCCOCCn1ccc(=O)c(O)c1C,logD,[3],-2.01
Cc1cc(=O)c(O)c(CO)n1CCCn1cc(COc2ccc3ccc(=O)oc3c2)nn1,Activity,[4],19.8
CCC(O)c1c(O)c(=O)cc(C)n1C (stereo not drawn),Efficacy,Rattus norvegicus [5],60.4%
same,Activity,[6],21
Cc1c(OC(N)=O)c(=O)ccn1-c1ccccc1,IC50,Acetylcholinesterase [7],48.8 µM
CN(C)c1ccc2c(-c3cc(NC(=S)NCCC(=O)NC(CCCNC(=O)c4[nH]ccc(=O)c4O)(CCCNC(=O)c4[nH]ccc(=O)c4O)CCCNC(=O)c4[nH]ccc(=O)c4O)ccc3C(=O)[O-])c3ccc(=[N+](C)C)cc-3oc2c1,MIC,[8],16 µM
COCCn1ccc(=O)c(O)c1C(=O)NCCCC(CCCNC(=O)c1c(O)c(=O)ccn1CCOC)(CCCNC(=O)c1c(O)c(=O)ccn1CCOC)NC(=O)[C@@H](N)CC(C)C,MIC,Pseudomonas aeruginosa,128 µg/mL
CCc1c(OCc2ccccc2)c(=O)ccn1CCCCCCNc1ccnc2cc(Cl)ccc12,IC50,Plasmodium falciparum [9],0.076 µM
same,IC50,Plasmodium falciparum [10],0.089 µM
same,IC50,Plasmodium falciparum [11],0.122 µM
same,IC50,Plasmodium falciparum [12],0.041 µM
O=c1cc(/C=C/c2nc3ccccc3o2)occ1O,Activity,[13],4.29
same,inhibition,[14],65%
same,IC50,[15],7.05 µM
Oc1cccc2cccnc12 [OXYQUINOLINE],Activity,[16],-150 mV
Cc1c(O)c(=O)ccn1CC(=O)NCC(O)CNc1c2c(nc3ccccc13)CCCC2 (stereo not drawn),inhibition,[17],86%
same,IC50,Acetylcholinesterase [1],0.96 µM
same,EC50,[18],399 µM
same,Activity,[19],21.7
Cc1c(O)c(=O)ccn1CC(=O)NCCCNc1c2c(nc3cc(Cl)ccc13)CCCC2,inhibition,[17],95.2%
same,IC50,Acetylcholinesterase [1],0.86 µM
same,EC50,[18],1110 µM
COc1cccc2cc(C(=O)NCCn3ccc(=O)c(O)c3C)oc12,EC50,[20],199 µM
same,inhibition,[21],49.8%
same,IC50,Acetylcholinesterase [22],246 µM
same,Activity,[23],17.3
same,Activity,[24],6.5
CC(=O)N(C)O,Activity,[19],13
Cc1c(O)c(=O)ccn1C [DEFERIPRONE],Efficacy,Rattus norvegicus [25],13.4%
same,Activity,[16],-620 mV
same,IC50,[26],102 µM
same,logP at 1 h,[27],0.17
same,Activity,[19],20.4
CCCC(=O)NC(CCCNC(=O)c1c(O)c(=O)ccn1CC)(CCCNC(=O)c1c(O)c(=O)ccn1CC)CCCNC(=O)c1c(O)c(=O)ccn1CC,MIC,Pseudomonas aeruginosa,32 µg/mL
CCn1ccc(=O)c(O)c1C(=O)NCCCC(CCCNC(=O)c1c(O)c(=O)ccn1CC)(CCCNC(=O)c1c(O)c(=O)ccn1CC)NC(=O)[C@@H](N)CC(C)C,MIC,Pseudomonas aeruginosa,32 µg/mL
CC(=O)N(O)CCCCCNC(=O)CCC(=O)N(O)CCCCCNC(=O)CCC(=O)N(O)CCCCCN [DEFEROXAMINE],Activity,[16],-468 mV
same,Activity,[19],26.6
CCc1c(O)c(=O)ccn1CCCn1cc(COc2cc3ccccc3oc2=O)nn1,Activity,[4],17.1
Cc1c(O)c(=O)ccn1CC(=O)NCC(O)CNc1c2c(nc3cc(Cl)ccc13)CCCC2 (stereo not drawn),IC50,Acetylcholinesterase [1],0.64 µM
O=c1cc(/C=C/c2nc3ccc(O)cc3s2)occ1O,Activity,[13],6.03
same,inhibition,[14],78.3%
same,IC50,[15],5.06 µM
